Laboratory results: patent US20230117324A1, “OXAZINE MONOACYLGLYCEROL LIPASE (MAGL) INHIBITORS” (Hoffmann-La Roche Inc., priority 2018, published 2023)

Target: T1, MAGL (recombinant wild-type) (Homo sapiens, UniProt Q99685)
T1 sequence (Q99685 1-303): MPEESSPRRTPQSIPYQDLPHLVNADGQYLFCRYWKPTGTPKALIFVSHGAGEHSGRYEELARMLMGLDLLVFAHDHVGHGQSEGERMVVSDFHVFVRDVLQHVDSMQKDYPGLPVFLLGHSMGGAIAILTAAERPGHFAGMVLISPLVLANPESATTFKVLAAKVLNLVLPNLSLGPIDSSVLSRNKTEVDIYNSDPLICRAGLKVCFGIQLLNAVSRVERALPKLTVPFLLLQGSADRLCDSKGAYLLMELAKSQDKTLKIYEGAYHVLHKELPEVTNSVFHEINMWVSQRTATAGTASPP
Experiment: MAGL inhibition, 4-NPA assay (hydrolysis of 4-nitrophenylacetate, absorbance at 405 nm)
Assay type: biochemical
Conditions: 4-NPA assay (footnote [a]: values not marked [b])
Procedure: Compounds were profiled for MAGL inhibitory activity by measuring the enzymatic activity of MAGL by following the hydrolysis of 4-nitrophenylacetate resulting in 4-nitrophenol, which absorbs at 405-412 nm (G. G. Muccioli, G. Labar, D. M. Lambert, Chem. Bio. Chem. 2008, 9, 2704-2710). This assay is hereinafter abbreviated “4-NPA assay”.
The assay was carried out in 384 well assay plates (black with clear bottom, non-binding surface treated, Corning Ref. 3655) in a total volume of 40 μL. Compound dilutions were made in 100% DMSO (VWR Chemicals 23500.297) in a polypropylene plate in 3-fold dilution steps to give a final concentration range in the assay from 25 μM to 1.7 nM. 1 μL compound dilutions (100% DMSO) were added to 19 μL MAGL (recombinant wild-type) in assay buffer (50 mM TRIS (GIBCO, 15567-027), 1 mM EDTA (Fluka, 03690-100 mL)). The plate was shaked for 1 min at 2000 rpm (Variomag Teleshake) and then incubated for 15 min at RT. To start the reaction, 20 μL 4-Nitrophenlyacetate (Sigma N-8130) in assay buffer with 6% EtOH was added. The final concentrations in the assay were 1 nM MAGL and 300 μM 4-Nitrophenylacetate. After shaking (1 min, 2000 rpm) and 5 min incubation at RT, the absorbance at 405 nm was measured for a first time (Molecular Devices, SpectraMax Paradigm). A second measurement was then done after incubation for 80 min at RT. From the two measurements, the slope was calculated by subtracting the first from the second measurement.

Row | IC50 | Structure (SMILES)
1 | 33 nM | O=C1CO[C@H]2CCN(C(=O)N3CCC(C(CCO)c4ccc(F)cc4)CC3)C[C@H]2N1 (mixture of isomers) [Example 26, rac-cis-6-(4-(1-(4-Fluorophenyl)-3-hydroxypropyl)piperidine-1-carbonyl)hexahydro-2H-pyrido[4,3-b][1,4]oxazin-3(4H)-one]
2 | 5 nM | CC(c1ccc(C(F)(F)F)cc1)C1CCN(C(=O)N2CC[C@@H]3OCC(=O)N[C@@H]3C2)CC1 (mixture of isomers) [Example 27, (4aR,8aS)-6-(4-(1-(4-(Trifluoromethyl)phenyl)ethyl)piperidine-1-carbonyl)hexahydro-2H-pyrido[4,3-b][1,4]oxazin-3(4H)-one]
3 | 2 nM | CC(Oc1ccc(F)cc1Cl)C1CCN(C(=O)N2CC[C@@H]3OCC(=O)N[C@@H]3C2)CC1 (mixture of isomers) [Example 28, rac-(4aR,8aS)-6-(4-(1-(2-Chloro-4-fluorophenoxy)ethyl)piperidine-1-carbonyl)hexahydro-2H-pyrido[4,3-b][1,4]oxazin-3(4H)-one]
4 | 2 nM | O=C1CO[C@H]2CCN(C(=O)N3CCC(c4cn(CCO)c5ccc(Cl)cc45)CC3)C[C@H]2N1 (single isomer, unassigned) [Example 25, (+)- or (−)-cis-6-(4-(5-Chloro-1-(2-hydroxyethyl)-1H-indol-3-yl)piperidine-1-carbonyl)hexahydro-2H-pyrido[4,3-b][1,4]oxazin-3(4H)-one]
5 | 203 nM | O=C1CO[C@H]2CCN(C(=O)N3CCC([C@H](CCO)c4ccc(F)cc4)CC3)C[C@H]2N1 (single isomer, unassigned) [Example 32, (−)-(4aR,8aS)--6-(4-((S or R)-1-(4-Fluorophenyl)-3-hydroxypropyl)piperidine-1-carbonyl)hexahydro-2H-pyrido[4,3-b][1,4]oxazin-3(4H)-one]
6 | 51 nM | C[C@H](Oc1ccc(F)cc1Cl)C1CCN(C(=O)N2CC[C@@H]3OCC(=O)N[C@@H]3C2)CC1 (single isomer, unassigned) [Example 33, (+) or (−)-cis-6-(4-((S or R)-1-(2-Chloro-4-fluorophenoxy)ethyl)piperidine-1-carbonyl)hexahydro-2H-pyrido[4,3-b][1,4]oxazin-3(4H)-one]
7 | 1 nM | C[C@@H](Oc1ccc(F)cc1Cl)C1CCN(C(=O)N2CC[C@@H]3OCC(=O)N[C@@H]3C2)CC1 (single isomer, unassigned) [Example 34, (+) or (−)-cis-6-(4-((R or S)-1-(2-Chloro-4-fluorophenoxy)ethyl)piperidine-1-carbonyl)hexahydro-2H-pyrido[4,3-b][1,4]oxazin-3(4H)-one]
8 | 2400 nM | COc1cncc(C2CCN(C(=O)N3CC[C@@H]4OCC(=O)N[C@@H]4C3)CC2)c1 (single isomer, unassigned) [Example 35, (+) or (−)-cis-6-(4-(5-Methoxypyridin-3-yl)piperidine-1-carbonyl)hexahydro-2H-pyrido[4,3-b][1,4]oxazin-3(4H)-one]
9 | 85 nM | O=C1CO[C@@H]2CCN(C(=O)N3CCC(C(c4ccc(F)cc4)c4ccc(F)cc4)CC3)C[C@@H]2N1 (single isomer, unassigned) [Example 36, (+) or (−)-cis-6-(4-(Bis(4-fluorophenyl)methyl)piperidine-1-carbonyl)hexahydro-2H-pyrido[4,3-b][1,4]oxazin-3(4H)-one]
10 | 34 nM | O=C1CO[C@H]2CCN(C(=O)N3CCC(C(F)(F)c4ccc(Cl)cc4)CC3)C[C@H]2N1 (single isomer, unassigned) [Example 37, (+) or (−)-cis-6-(4-((4-Chlorophenyl)difluoromethyl)piperidine-1-carbonyl)hexahydro-2H-pyrido[4,3-b][1,4]oxazin-3(4H)-one]
11 | 644 nM | O=C1CO[C@H]2CCN(C(=O)N3CCC(c4ccc(OC(F)(F)F)cn4)CC3)C[C@H]2N1 (single isomer, unassigned) [Example 38, (+) or (−)-cis-6-(4-(5-(Trifluoromethoxy)pyridin-2-yl)piperidine-1-carbonyl)hexahydro-2H-pyrido[4,3-b][1,4]oxazin-3(4H)-one]

Continued, molecule first:

Row | Structure (SMILES) | IC50
12 | CC(c1ccccc1)N1CCN(C(=O)N2CC[C@@H]3OCC(=O)N[C@@H]3C2)CC1 (mixture of isomers) [Example 15, rac-(4aR,8aS)-6-(4-(1-Phenylethyl)piperazine-1-carbonyl)hexahydro-2H-pyrido[4,3-b][1,4]oxazin-3(4H)-one] | 3000 nM
13 | Cn1ncc2cc(C3CCN(C(=O)N4CC[C@@H]5OCC(=O)N[C@@H]5C4)CC3)ccc21 (racemic) [Example 16, rac-(4aR,8aS)-6-(4-(1-Methyl-1H-indazol-5-yl)piperidine-1-carbonyl)hexahydro-2H-pyrido[4,3-b][1,4]oxazin-3(4H)-one] | 1500 nM
14 | O=C1CO[C@@H]2CCN(C(=O)N3CCN([C@@H](c4ccccc4)c4ccc(F)cc4)CC3)C[C@@H]2N1 (racemic) [Example 17, rac-(4aR,8aS)-6-[4-[rac-(4-Fluorophenyl)-phenylmethyl]piperazine-1-carbonyl]-4,4a,5,7,8,8a-hexahydropyrido[4,3-b][1,4]oxazin-3-one] | 6 nM
15 | N#C/C(=C\N1CCN(C(=O)N2CC[C@@H]3OCC(=O)N[C@@H]3C2)CC1)c1ccccc1 (racemic) [Example 18, (E/Z)-3-[4-[rac-(4aS,8aR)-3-oxo-4,4a,5,7,8,8a-hexahydropyrido[4,3-b][1,4]oxazine-6-carbonyl]piperazin-1-yl]-2-phenylprop-2-enenitrile] | 2100 nM
16 | O=C1CO[C@H]2CCN(C(=O)N3CCC(c4cn(C(CO)CCl)c5ccc(Cl)cc45)CC3)C[C@H]2N1 (mixture of isomers) [Example 20, rac-(4aR,8aS)-6-(4-(5-Chloro-1-(1-chloro-3-hydroxypropan-2-yl)-1H-indol-3-yl)piperidine-1-carbonyl)hexahydro-2H-pyrido[4,3-b][1,4]oxazin-3(4H)-one] | 2 nM
17 | O=C1CO[C@H]2CCN(C(=O)N3CCC(c4c[nH]c5cc(F)ccc45)CC3)C[C@H]2N1 (relative stereo) [Example 5, (+)-cis-6-[4-(6-Fluoro-1H-indol-3-yl)piperidine-1-carbonyl]-4,4a,5,7,8,8a-hexahydropyrido[4,3-b][1,4]oxazin-3-one] | 14 nM
18 | O=C1CO[C@H]2CCN(C(=O)N3CCN(C(c4ccc(F)cc4)c4ccc(F)cc4)CC3)C[C@H]2N1 (relative stereo) [Example 11, (+)-cis-6-(4-(bis(4-Fluorophenyl)methyl)piperazine-1-carbonyl)hexahydro-2H-pyrido[4,3-b][1,4]oxazin-3(4H)-one] | 8 nM
19 | O=C1CO[C@H]2CCN(C(=O)N3CCC(c4cn(C5COC5)c5ccc(Cl)cc45)CC3)C[C@H]2N1 (relative stereo) [Example 22, (+)- or (−)-cis-6-(4-(5-Chloro-1-(oxetan-3-yl)-1H-indol-3-yl)piperidine-1-carbonyl)hexahydro-2H-pyrido[4,3-b][1,4]oxazin-3(4H)-one] | 2 nM
20 | O=C1CO[C@H]2CCN(C(=O)N3CCC(c4cn(C5CC5)c5ccc(Cl)cc45)CC3)C[C@H]2N1 (single isomer, unassigned) [Example 19, (+)-or (−)-cis-6-(4-(5-Chloro-1-cyclopropyl-1H-indol-3-yl)piperidine-1-carbonyl)hexahydro-2H-pyrido[4,3-b][1,4]oxazin-3(4H)-one] | 1 nM
21 | O=C1CO[C@H]2CCN(C(=O)N3CCC(C(c4ccc(F)cc4)c4ccc(F)cc4)CC3)C[C@H]2N1 (single isomer, unassigned) [Example 21, (+)-or (−)-cis-6-(4-(bis(4-Fluorophenyl)methyl)piperidine-1-carbonyl)hexahydro-2H-pyrido[4,3-b][1,4]oxazin-3(4H)-one] | 1 nM
22 | O=C1CO[C@H]2CCN(C(=O)N3CCC(c4cn(CC5COC5)c5ccc(Cl)cc45)CC3)C[C@H]2N1 (single isomer, unassigned) [Example 23, (+)-or (−)-cis-6-(4-(5-Chloro-1-(oxetan-3-ylmethyl)-1H-indol-3-yl)piperidine-1-carbonyl)hexahydro-2H-pyrido[4,3-b][1,4]oxazin-3(4H)-one] | 3 nM
23 | CC(C)(C)[Si](C)(C)OCCn1cc(C2CCN(C(=O)N3CC[C@@H]4OCC(=O)N[C@@H]4C3)CC2)c2cc(Cl)ccc21 (single isomer, unassigned) [Example 24, (+)-or (−)-cis-6-(4-(1-(2-((tert-Butyldimethylsilyl)oxy)ethyl)-5-chloro-1H-indol-3-yl)piperidine-1-carbonyl)hexahydro-2H-pyrido[4,3-b][1,4]oxazin-3(4H)-one] | 0.7 nM
